According to PubChem BioAssay (NCI):
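Step 1: Grow cells in 96-well plates. Step 2: Expose to compound for 48 hours at 5 concentrations. Step 3: Interpolate endpoints linearly; if unreached, use highest concentration. TGI: concentration producing complete growth inhibition.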

Assays:
Experiment in all cases: DTP human tumour cell line panel, 48 h
[1] = test system: HS 578T breast
[2] = test system: K-562 leukemia
[3] = test system: RXF 393 renal
[4] = test system: KM12 colon
[5] = test system: ACHN renal
[6] = test system: MDA-MB-435
[7] = test system: OVCAR-3 ovarian
[8] = test system: 786-0 renal
[9] = test system: M14 melanoma
[10] = test system: A498 renal
[11] = test system: OVCAR-8 ovarian
[12] = test system: OVCAR-5 ovarian
[13] = test system: T-47D breast
[14] = test system: MOLT-4 leukemia
[15] = test system: HOP-92 NSCLC
[16] = test system: DU-145 prostate
[17] = test system: UACC-257 melanoma
[18] = test system: MDA-N
[19] = test system: SNB-75 CNS
[20] = test system: SN12C renal
[21] = test system: NCI-H522 lung
[22] = test system: UACC-62 melanoma
[23] = test system: OVCAR-4 ovarian
[24] = test system: MALME-3M melanoma
[25] = test system: NCI/ADR-RES ovarian
[26] = test system: SK-MEL-28 melanoma
[27] = test system: RPMI-8226 leukemia
[28] = test system: HT29 colon
[29] = test system: MDA-MB-231 breast
[30] = test system: HCT-15 colon
[31] = test system: SK-MEL-2 melanoma
[32] = test system: SF-268 CNS
[33] = test system: CCRF-CEM leukemia
[34] = test system: CAKI-1 renal
[35] = test system: COLO 205 colon
[36] = test system: BT-549 breast
[37] = test system: EKVX NSCLC
[38] = test system: PC-3 prostate
[39] = test system: SNB-19 CNS
[40] = test system: A549 NSCLC
[41] = test system: IGROV1 ovarian
[42] = test system: U251 CNS
[43] = test system: SK-OV-3 ovarian
[44] = test system: MCF7 breast
[45] = test system: NCI-H460 lung
[46] = test system: HCT-116 colon
[47] = test system: HCC-2998 colon
[48] = test system: HOP-62 NSCLC
[49] = test system: SF-295 CNS
[50] = test system: UO-31 renal
[51] = test system: SF-539 CNS
[52] = test system: NCI-H226 lung
[53] = test system: SR leukemia
[54] = test system: SK-MEL-5 melanoma
[55] = test system: TK-10 renal
[56] = test system: LOX IMVI melanoma
[57] = test system: NCI-H23 lung
[58] = test system: SW-620 colon
[59] = test system: HL-60(TB) leukemia

## N#Cc1c(-c2ccccc2)cc(Nc2ccc(Cl)cc2)n2c1nc1ccccc12
[1]
  TGI: 20.2 µM
[2]
  TGI: 8.21 µM
[3]
  TGI: > 100 µM
[4]
  TGI: > 65.5 µM
[5]
  TGI: > 100 µM
[6]
  TGI: > 100 µM
[7]
  TGI: 11 µM
[8]
  TGI: > 39.7 µM
[9]
  TGI: > 100 µM
[10]
  TGI: > 100 µM
[11]
  TGI: > 57 µM
[12]
  TGI: > 50.9 µM
[13]
  TGI: > 43 µM
[14]
  TGI: 9.5 µM
[15]
  TGI: 4.63 µM
[16]
  TGI: > 100 µM
[17]
  TGI: > 28.8 µM
[18]
  TGI: > 41.6 µM
[19]
  TGI: > 31.1 µM
[20]
  TGI: > 32.2 µM
[21]
  TGI: 11.6 µM
[22]
  TGI: > 100 µM
[23]
  TGI: > 100 µM
[24]
  TGI: > 100 µM
[25]
  TGI: 15.7 µM
[26]
  TGI: > 100 µM
[27]
  TGI: > 63.3 µM
[28]
  TGI: 11.4 µM
[29]
  TGI: > 47.4 µM
[30]
  TGI: > 88 µM
[31]
  TGI: > 83.6 µM
[32]
  TGI: > 100 µM
[33]
  TGI: > 94.7 µM
[34]
  TGI: > 30.7 µM
[35]
  TGI: 2.8 µM
[36]
  TGI: > 100 µM
[37]
  TGI: > 46.7 µM
[38]
  TGI: > 48 µM
[39]
  TGI: > 100 µM
[40]
  TGI: > 40.1 µM
[41]
  TGI: > 100 µM
[42]
  TGI: 97.5 µM
[43]
  TGI: > 30.4 µM
[44]
  TGI: > 76.3 µM
[45]
  TGI: > 37.6 µM
[46]
  TGI: > 31.7 µM
[47]
  TGI: > 100 µM
[48]
  TGI: > 58.2 µM
[49]
  TGI: > 33.3 µM
[50]
  TGI: > 100 µM
[51]
  TGI: > 49.5 µM
[52]
  TGI: > 100 µM
[53]
  TGI: 20.3 µM
[54]
  TGI: 4.98 µM
[55]
  TGI: > 100 µM
[56]
  TGI: > 100 µM
[57]
  TGI: > 100 µM
[58]
  TGI: > 100 µM

## CCOC1CCN(C(=O)c2ccccc2)O1 (configuration not stated)
[1]
  TGI: > 10 µM
[2]
  TGI: > 10 µM
[3]
  TGI: > 10 µM
[5]
  TGI: > 10 µM
[6]
  TGI: > 10 µM
[7]
  TGI: > 10 µM
[8]
  TGI: > 10 µM
[9]
  TGI: > 10 µM
[11]
  TGI: > 10 µM
[12]
  TGI: > 10 µM
[13]
  TGI: > 10 µM
[14]
  TGI: > 10 µM
[16]
  TGI: > 10 µM
[17]
  TGI: > 10 µM
[18]
  TGI: > 10 µM
[19]
  TGI: > 10 µM
[20]
  TGI: > 10 µM
[21]
  TGI: > 10 µM
[23]
  TGI: > 10 µM
[24]
  TGI: > 10 µM
[25]
  TGI: > 10 µM
[26]
  TGI: > 10 µM
[27]
  TGI: > 10 µM
[28]
  TGI: > 10 µM
[29]
  TGI: > 10 µM
[30]
  TGI: > 10 µM
[31]
  TGI: > 10 µM
[32]
  TGI: > 10 µM
[33]
  TGI: > 10 µM
[34]
  TGI: > 10 µM
[35]
  TGI: > 10 µM
[36]
  TGI: > 10 µM
[37]
  TGI: > 10 µM
[38]
  TGI: > 10 µM
[39]
  TGI: > 10 µM
[40]
  TGI: > 10 µM
[41]
  TGI: > 10 µM
[43]
  TGI: > 10 µM
[44]
  TGI: > 10 µM
[45]
  TGI: > 10 µM
[46]
  TGI: > 10 µM
[47]
  TGI: > 10 µM
[48]
  TGI: > 10 µM
[49]
  TGI: > 10 µM
[50]
  TGI: > 10 µM
[51]
  TGI: > 10 µM
[59]
  TGI: > 10 µM
[52]
  TGI: > 10 µM
[53]
  TGI: > 10 µM
[54]
  TGI: > 10 µM
[55]
  TGI: > 10 µM
[56]
  TGI: > 10 µM
[57]
  TGI: > 10 µM
[58]
  TGI: > 10 µM
